This note sets out measurements from patent US9232788B2, “Fumigation methods” (Honeywell International Inc., priority 2011, dated 2016).

Data set [1] concerns Abutilon theophrasti Medik. seeds. The data set can be described thus: Fumigant test on weed seeds in soil, seed germination count. It counts as in vivo. The following applies: for Seeds Germinated Abutilon theophrastic Medik.: fourteen seeds in soil, two days treatment, counted after 10 days; for seed germination (in words): all experimental concentrations (80, 160, 440 ml). As for the experimental part:
(§1) In particular, in 440 mL pressure vessels, fourteen seeds of Abutilon theophrasti Medik. and fifteen seeds of Lolium multiflorum Lam. were thoroughly mixed with 50 mL (approximately 30 grams) of soil and 6 mL of water. The filled vessels were kept at room temperature for 20-24 hr to allow the seeds to imbibe water before treatment. The vessels were sealed and evacuated, and then 80 ml, 160 ml and 440 ml respectively of gaseous 1225zc was added. The vessels were thoroughly mixed and placed horizontally on the laboratory bench at ambient temperature for two days. The contents of each bottle were transferred to a plastic sterile Petri dish containing 7 mL of water. The Petri dishes were sealed with parafilm and incubated in the laboratory at ambient temperature. After 10 days, the number of germinated seeds was counted.
The same experiment was performed as described in Example 1 except that hexafluoropropene (HFP) was used as the active fumigant composition.

A short description of data set [2]: Volatility of aqueous fumigant compositions with and without surfactant (weight loss). The format is physicochemical. The following applies: with Tween 80 nonionic surfactant versus without; 20° C., vented, weight loss every 30 seconds. The protocol: Experimentation was carried out to determine the volatility of aqueous fumigant compositions, both with and without inclusion of a surfactant. In each case, the fluorocarbon was placed in a chilled 500 ml Fischer Porter tube that was equipped with a vent to remove any gases. The vessel was cooled to 0° C. and was charged with varying amounts of water, fluorocarbon and surfactant. The temperature was equilibrated to 20° C. and the reactor was placed on a balance. The vent tube was opened and the weight loss was recorded every 30 seconds.
In analyzing the effects of adding surfactant to an aqueous solution of HFP, 10.11 grams of HFP was added to 39.71 grams of water. In a separate experiment, 9.83 grams of HFP and 4.03 grams of Tween™ 80 were added to 40.08 grams of water. FIG. 1 provides a graphical representation of the numerical data comparing the volatility of an aqueous solution of HFP, both with and without inclusion of the Tween™ 80 nonionic surfactant.
In analyzing the effects of adding surfactant to an aqueous solution of 1225zc, 10.78 grams of 1225zc were added to 39.69 grams of water. In a separate experiment, 10.70 grams of 1225zc and 4.08 grams of Tween™ 80 were added to 40.15 grams of water. […]

Data set [3] relates to Lolium multiflorum Lam. seeds. The data set can be described thus: Fumigant test on weed seeds in soil, seed germination count. The format is in vivo. The following applies: for Seeds Germinated Loliium multiflorum Lam.: fifteen seeds in soil, two days treatment, counted after 10 days; for seed germination (in words): all experimental concentrations (80, 160, 440 ml). As for the experimental part:
as §1, with “counted. […]” for “counted.”

Setting [4] is: 80 ml gaseous fumigant in 440 mL vessel.
Setting [5] is: 160 ml gaseous fumigant in 440 mL vessel.
[6] abbreviates: 440 ml gaseous fumigant in 440 mL vessel.

Entries after “also recorded” stand apart in the source; their conditions may differ.

In the case of `FC(F)=CC(F)(F)F` [1225zc, 1,1,3,3,3-pentafluoropropene], the “Seeds Germinated Abutilon theophrastic Medik.” value in data set [1] (setting [4]), in data set [1] (setting [5]) and in data set [1] (setting [6]) was 0 in each case. The “seed germination (in words)” value in data set [1] is “none”; in data set [1] (listed as 1125c) it was “completely prevented seed germination”; in data set [3], “none”; in data set [3] (listed as 1125c) it was “completely prevented seed germination”. In addition, in data set [2], the “retention of the fluorocarbon in aqueous solution” value was “longer retention”. In addition, the “Seeds Germinated Loliium multiflorum Lam.” value in data set [3] (setting [4]), in data set [3] (setting [5]) and in data set [3] (setting [6]) was 0 throughout.
For `FC(F)=C(F)C(F)(F)F` [HFP, hexafluoropropene], the “Seeds Germinated Abutilon theophrastic Medik.” value in data set [1] (setting [4]), in data set [1] (setting [5]) and in data set [1] (setting [6]) was 0 each time. In addition, the “seed germination (in words)” value in data set [1] and in data set [3] was “completely prevented seed germination; also recorded: no germination occurred” throughout. In data set [2], the “retention of the fluorocarbon in aqueous solution” value was “longer retention”. The “Seeds Germinated Loliium multiflorum Lam.” value in data set [3] (setting [4]), in data set [3] (setting [5]) and in data set [3] (setting [6]) was 0 in each case.
